Reference: ChEMBL document CHEMBL1201862, “PubChem BioAssay data set” (2004)
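Protocol summary: plate cells (96-well), add compound at 5 concentrations, incubate 48 h, interpolate endpoints linearly. The concentration for 50% growth inhibition is given as GI50.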 Calls of active or inactive are those of the source. No stated cut-off is given here; in the data, active = GI50 up to about 1.1 µM and inactive = higher.

Assays:
Assay in all cases: NCI-60 cell line screen, 48 h
[1] = system: M14
[2] = system: OVCAR-8
[3] = system: HCT-116
[4] = system: HCT-15
[5] = system: SNB-19
[6] = system: HL-60
[7] = system: HCC 2998
[8] = system: UO-31
[9] = system: NCI-H23
[10] = system: ACHN
[11] = system: SK-MEL-2
[12] = system: OVCAR-5
[13] = system: CAKI-1
[14] = system: K562
[15] = system: RPMI-8226
[16] = system: SW-620
[17] = system: OVCAR-4
[18] = system: HOP-92

Structure (SMILES) | GI50 [1] | GI50 [2] | GI50 [3] | GI50 [4] [µM] | GI50 [5] | GI50 [6] | GI50 [7] | GI50 [8] | GI50 [9] | GI50 [10] | GI50 [11] | GI50 [12] | GI50 [13] | GI50 [14] | GI50 [15] | GI50 [16] | GI50 [17] | GI50 [18]
CCCCCCN(CCCCCC)C1=CC(=O)C(=O)c2ccccc21 | 18.3 µM (inactive) | 16.1 µM (inactive) | 17.5 µM (inactive) | 17.7 | 16.1 µM (inactive) | 10.1 µM (inactive) | 20.9 µM (inactive) | 13.4 µM (inactive) | 11.5 µM (inactive) | 17 µM (inactive) | 18.7 µM (inactive) | 19.1 µM (inactive) | 15 µM (inactive) | 17.1 µM (inactive) | 16.7 µM (inactive) | 14.2 µM (inactive) | 15.4 µM (inactive) | 14.5 µM (inactive)
CN(C)c1ccc(/C=N\N2C(=O)c3ccccc3C2=O)cc1 | > 100 µM (inactive) | > 100 µM (inactive) | > 100 µM (inactive) | > 100 | > 100 µM (inactive) | > 100 µM (inactive) | > 100 µM (inactive) | > 100 µM (inactive) | > 100 µM (inactive) | > 100 µM (inactive) | > 100 µM (inactive) | > 100 µM (inactive) | > 100 µM (inactive) | > 100 µM (inactive) | > 100 µM (inactive) | > 100 µM (inactive) | > 100 µM (inactive) | > 100 µM (inactive)
C=CC1=CSNN1 | > 100 µM (inactive) | > 100 µM (inactive) |  | > 100 | > 100 µM (inactive) | > 100 µM (inactive) | > 100 µM (inactive) | > 100 µM (inactive) | > 100 µM (inactive) | > 100 µM (inactive) | > 100 µM (inactive) | > 100 µM (inactive) | > 100 µM (inactive) | > 100 µM (inactive) | > 100 µM (inactive) | > 100 µM (inactive) | > 100 µM (inactive) | > 100 µM (inactive)
C[C@]12Cc3conc3C(O)=C1CC[C@@H]1C2CC[C@@]2(C)C1CC[C@]2(C)O (stereo partly specified) | 16 µM (inactive) | 23.4 µM (inactive) | 16.3 µM (inactive) | 10.7 | 25.3 µM (inactive) | 2.09 µM (inactive) | 21.1 µM (inactive) | 16 µM (inactive) | 19.5 µM (inactive) | 26.5 µM (inactive) | 14.3 µM (inactive) | 29.2 µM (inactive) |  | 3.97 µM (inactive) | 2.87 µM (inactive) | 21.1 µM (inactive) | 17.2 µM (inactive) | 32.4 µM (inactive)
COC(=O)CCC(=O)CC(=O)C(=O)Nc1ccc(F)cc1 | > 100 µM (inactive) | > 100 µM (inactive) | > 100 µM (inactive) | > 100 | > 100 µM (inactive) |  | > 100 µM (inactive) | > 100 µM (inactive) | > 100 µM (inactive) | > 100 µM (inactive) | > 100 µM (inactive) | > 100 µM (inactive) | > 100 µM (inactive) | > 100 µM (inactive) | > 100 µM (inactive) | > 100 µM (inactive) | > 100 µM (inactive) | > 100 µM (inactive)
O=C(O)c1cc2c3ccccc3nc-2c[nH]1 | > 100 µM (inactive) | > 100 µM (inactive) | > 100 µM (inactive) | > 100 | > 100 µM (inactive) | > 100 µM (inactive) | > 100 µM (inactive) | > 100 µM (inactive) | > 100 µM (inactive) | > 100 µM (inactive) |  | > 100 µM (inactive) | > 100 µM (inactive) | > 100 µM (inactive) | > 100 µM (inactive) | > 100 µM (inactive) | > 100 µM (inactive) | > 100 µM (inactive)
O=C1C=CC(=O)c2c1ccc1c3ccccc3n(-c3ccccn3)c21 | 27.5 µM (inactive) | 24.7 µM (inactive) | 13.2 µM (inactive) | 19.1 |  | 3.5 µM (inactive) | > 100 µM (inactive) | 19.1 µM (inactive) | 36.6 µM (inactive) | 21.2 µM (inactive) | 45.4 µM (inactive) | > 100 µM (inactive) |  | 4.98 µM (inactive) | 25.6 µM (inactive) |  | 15.5 µM (inactive) | 15.6 µM (inactive)
COC(=O)C1=Cc2cn(S(=O)(=O)c3ccc(C)cc3)c3cccc(c23)C(C=C(C)C)N1C(C)=O (stereo unspecified) | 30.2 µM (inactive) | 84.9 µM (inactive) | 11.1 µM (inactive) |  | 49 µM (inactive) | 5.56 µM (inactive) | > 100 µM (inactive) | 26.1 µM (inactive) | 36.9 µM (inactive) | 18.8 µM (inactive) | 4.68 µM (inactive) | > 100 µM (inactive) | 12.6 µM (inactive) | 8 µM (inactive) |  | 32.7 µM (inactive) | 8.67 µM (inactive) | 12.7 µM (inactive)
COC(=O)C1=C(C(=O)OC)C2(C(=O)OC)OC1(OC)C(C1(C(=O)OC)C(C(=O)OC)=C1C(=O)OC)=C2C(=O)OC (stereo unspecified) | > 100 µM (inactive) | > 100 µM (inactive) | > 100 µM (inactive) | > 100 | > 100 µM (inactive) | > 100 µM (inactive) | > 100 µM (inactive) | > 100 µM (inactive) | > 100 µM (inactive) | > 100 µM (inactive) | > 100 µM (inactive) | > 100 µM (inactive) |  | > 100 µM (inactive) | > 100 µM (inactive) | > 100 µM (inactive) |  | > 100 µM (inactive)
O=S1(=O)NN=C(NCc2ccc(Cl)cc2)c2ccccc21 | 74 µM (inactive) | > 100 µM (inactive) | > 100 µM (inactive) | 67 | > 100 µM (inactive) | > 100 µM (inactive) | > 100 µM (inactive) | > 100 µM (inactive) |  | > 100 µM (inactive) | > 100 µM (inactive) | > 100 µM (inactive) | > 100 µM (inactive) | 38 µM (inactive) | 30.6 µM (inactive) | > 100 µM (inactive) | > 100 µM (inactive) | 35.3 µM (inactive)
Cc1c(C)n(COCCO)c2ncnc(N)c12 | > 100 µM (inactive) | > 100 µM (inactive) |  | > 100 | > 100 µM (inactive) | > 100 µM (inactive) | > 100 µM (inactive) | > 100 µM (inactive) | > 100 µM (inactive) | > 100 µM (inactive) | > 100 µM (inactive) |  | > 100 µM (inactive) | > 100 µM (inactive) | > 100 µM (inactive) | > 100 µM (inactive) | > 100 µM (inactive) | > 100 µM (inactive)
Nc1ccn(CCCC(c2ccccc2)P(=O)(O)O)c(=O)n1 (stereo unspecified) | > 100 µM (inactive) | > 100 µM (inactive) | > 100 µM (inactive) | > 100 | > 100 µM (inactive) | > 100 µM (inactive) | > 100 µM (inactive) | > 100 µM (inactive) | > 100 µM (inactive) | > 100 µM (inactive) | > 100 µM (inactive) | > 100 µM (inactive) | > 100 µM (inactive) | > 100 µM (inactive) | > 100 µM (inactive) | > 100 µM (inactive) |  | 91.4 µM (inactive)
